Results taken from patent publication US8084644B2, “Iminopropene compound and use thereof” (Sumitomo Chemical Company, Limited, priority 2005, dated 2011).

Test system: Haemaphysalis longicornis
Test: Test Example 11: filter paper bag contact test on ticks
Type: in vivo
Details: 48 h, 0.5 mg test compound on 5 cm×10 cm filter paper, after 2 days
Protocol: 0.5 mg of the test compound was dissolved to […]. Onto one side of filter paper having 5 cm×10 cm, the solution was applied uniformly and then air-dried. Thereafter, the filter paper was folded in half and fixed by paper clips at the side to form bag like shape. Ten Haemaphysalis longicornis was put into the bag, and then the bag was closed with a paper clip. After 2 days, the number of dead insects was examined.

Structure (SMILES) | mortality at 0.5 mg/filter paper [%]
C(=CC(=Nc1ccccc1)Sc1ccccc1)Sc1ccccc1 [(1), Phenyl N-phenyl-3-(phenylthio)thioacrylimidate] | 100
Clc1ccc(SC(C=CSc2ccccc2)=Nc2ccccc2)cc1 [(2), 4-Chlorophenyl N-phenyl-3-(phenylthio)thioacrylimidate] | 100
Clc1cccc(SC(C=CSc2ccccc2)=Nc2ccccc2)c1 [(3), 3-Chlorophenyl N-phenyl-3-(phenylthio)thioacrylimidate] | 100
Clc1ccccc1SC(C=CSc1ccccc1)=Nc1ccccc1 [(4), 2-Chlorophenyl N-phenyl-3-(phenylthio)thioacrylimidate] | 100
COc1ccc(SC(C=CSc2ccccc2)=Nc2ccccc2)cc1 [(26), 4-Methoxyphenyl N-phenyl-3-(phenylthio)thioacrylimidate] | 100
Cc1ccc(N=C(C=CSc2ccccc2)Sc2ccccc2)cc1 [(28), Phenyl N-(4-methylphenyl)-3-phenylthiothioacrylimidate] | 100
C(=CC(=Nc1ccccc1)Sc1ccccc1)Oc1ccccc1 [(35), Phenyl N-phenyl-3-(phenoxy)thioacrylimidate] | 100
C(=CC(=Nc1ccccc1)Oc1ccccc1)Sc1ccccc1 [(37), Phenyl N-phenyl-3-(phenylthio)acrylimidate] | 100
Clc1ccc(N=C(C=COc2ccccc2)Oc2ccccc2)cc1 [(43), Phenyl N-(4-chlorophenyl)-3-(phenoxy)acrylimidate] | 100
Clc1cccc(N=C(C=COc2ccccc2)Oc2ccccc2)c1 [(45), Phenyl N-(3-chlorophenyl)-3-(phenoxy)acrylimidate] | 100
Fc1ccccc1N=C(C=CSc1ccccc1)Oc1ccccc1 [(48), Phenyl N-(2-fluorophenyl)-3-(phenylthio)acrylimidate] | 100
Fc1ccc(N=C(C=CSc2ccccc2)Oc2ccccc2)cc1 [(50), Phenyl N-(4-fluorophenyl)-3-(phenylthio)acrylimidate] | 100
Fc1cccc(N=C(C=CSc2ccccc2)Oc2ccccc2)c1 [(51), Phenyl N-(3-fluorophenyl)-3-(phenylthio)acrylimidate] | 100
FC(F)(F)c1ccc(N=C(C=CSc2ccccc2)Oc2ccccc2)cc1 [(52), Phenyl N-(4-trifluoromethylphenyl)-3-(phenylthio)acrylimidate] | 100
Cc1ccc(N=C(C=CSc2ccccc2)Oc2ccccc2)cc1 [(54), Phenyl N-(4-methylphenyl)-3-(phenylthio)acrylimidate] | 100
Clc1ccc(N=C(C=COc2ccccc2)Oc2ccccc2)cc1Cl [(59), Phenyl N-(3,4-dichlorophenyl)-3-(phenoxy)acrylimidate] | 100
CCc1ccc(N=C(C=CSc2ccccc2)Oc2ccccc2)cc1 [(63), Phenyl N-(4-ethylphenyl)-3-(phenylthio)acrylimidate] | 100
Cc1cccc(N=C(C=COc2ccccc2)Oc2ccccc2)c1 [(69), Phenyl N-(3-methylphenyl)-3-(phenoxy)acrylimidate] | 100
Fc1ccc(N=C(C=COc2ccccc2)Oc2ccccc2)cc1 [(75), Phenyl N-(4-fluorophenyl)-3-(phenoxy)acrylimidate] | 100
Brc1ccc(N=C(C=COc2ccccc2)Oc2ccccc2)cc1 [(77), Phenyl N-(4-bromophenyl)-3-(phenoxy)acrylimidate] | 100

Structure (SMILES) | mortality at 0.5 mg/filter paper [%]
Ic1ccc(N=C(C=COc2ccccc2)Oc2ccccc2)cc1 [(80), Phenyl N-(4-iodophenyl)-3-(phenoxy)acrylimidate] | 100
Cc1ccc(OC(C=CSc2ccccc2)=Nc2ccc(C(C)C)cc2)cc1 [(88), 4-Methylphenyl N-[4-(1-methylethyl)phenyl]-3-(phenylthio)acrylimidate] | 100
Brc1cccc(SC=CC(=Nc2ccccc2)Oc2ccccc2)c1 [(101), Phenyl 3-(3-bromophenylthio)-N-phenylacrylimidate] | 100
Brc1ccc(SC=CC(=Nc2ccccc2)Oc2ccccc2)cc1 [(102), Phenyl 3-(4-bromophenylthio)-N-phenylacrylimidate] | 100
Fc1ccc(SC=CC(=Nc2ccccc2)Oc2ccccc2)cc1 [(103), Phenyl 3-(4-fluorophenylthio)-N-phenylacrylimidate] | 100
Fc1ccccc1SC=CC(=Nc1ccccc1)Oc1ccccc1 [(104), Phenyl 3-(2-fluorophenylthio)-N-phenylacrylimidate] | 100
Cc1cccc(SC=CC(=Nc2ccccc2)Oc2ccccc2)c1 [(106), Phenyl 3-(3-methylphenylthio)-N-phenylacrylimidate] | 100
COc1cccc(SC=CC(=Nc2ccccc2)Oc2ccccc2)c1 [(107), Phenyl 3-(3-methoxyphenylthio)-N-phenylacrylimidate] | 100
FC(F)(F)c1cccc(SC=CC(=Nc2ccccc2)Oc2ccccc2)c1 [(111), Phenyl N-phenyl-3-(3-trifluoromethylphenylthio)acrylimidate] | 100
Fc1cccc(SC=CC(=Nc2ccccc2)Oc2ccccc2)c1 [(113), Phenyl 3-(3-fluorophenylthio)-N-phenylacrylimidate] | 100
Cc1ccc(SC=CC(=Nc2ccccc2)Oc2ccccc2)cc1 [(118), Phenyl 3-(4-methylphenylthio)-N-phenylacrylimidate] | 100
Cc1ccc(SC=CC(=Nc2ccccc2)Oc2ccccc2)c(C)c1 [(119), Phenyl 3-(2,4-dimethylphenylthio)-N-phenylacrylimidate] | 100
Cc1ccc(C)c(SC=CC(=Nc2ccccc2)Oc2ccccc2)c1 [(120), Phenyl 3-(2,5-dimethylphenylthio)-N-phenylacrylimidate] | 100
Cc1cc(C)cc(SC=CC(=Nc2ccccc2)Oc2ccccc2)c1 [(121), Phenyl 3-(3,5-dimethylphenylthio)-N-phenylacrylimidate] | 100
CC(C)c1ccccc1SC=CC(=Nc1ccccc1)Oc1ccccc1 [(122), Phenyl 3-[2-(1-methylethyl)phenylthio]-N-phenylacrylimidate] | 100
FC(F)(F)c1ccc(SC=CC(=Nc2ccccc2)Oc2ccccc2)cc1 [(123), Phenyl N-phenyl-3-(4-trifluoromethylphenylthio)acrylimidate] | 100
COc1ccc(SC=CC(=Nc2ccccc2)Oc2ccccc2)cc1 [(146), Phenyl 3-(4-methoxyphenylthio)-N-phenylacrylimidate] | 100
C#Cc1ccc(N=C(C=COc2ccccc2)Oc2ccccc2)cc1 [(156), Phenyl N-(4-ethynylphenyl)-3-(phenoxy)acrylimidate] | 100
C=CCSC(C=CSc1ccccc1)=Nc1ccccc1 [(186), 2-Propenyl N-phenyl-3-(phenylthio)thioacrylimidate] | 100
C(=CC(=Nc1ccccc1)SC1CCCCC1)Sc1ccccc1 [(187), Cyclohexyl N-phenyl-3-(phenylthio)thioacrylimidate] | 100
